{"source": "patent US20070259903A1", "about": "(priority 2006, published 2007)", "key": {"[1]": {"system": "Influenza A/New Caledonia/20/99 (H1N1)", "assay": "ETOH vs DMSO comparison: compound + virus 1 h at room temperature, on indicator cells 1 hour then removed, neutral red", "type": "cell-based, influenza A virus", "conditions": "exposed to c1 + virus for 1 hour"}, "Rhinovirus HGP": {"system": "Rhinovirus HGP", "type": "cell-based", "conditions": "HeLa Ohio-1 cells, continuous exposure", "procedure": "(§1) The antiviral activity of barbituric acid analogs was also evaluated under conditions where the indicator cells to which virus had been previously added and then continuously exposed to different concentrations of C1 for the duration of the experiments. Eight different doses of C1 ranging from 100 μg/ml to half-log dilutions down to 0.032 μg/ml were added to the indicator cells after adding the indicated virus. This virus-cell combination was continuously exposed to C1 until untreated control wells developed a cytopathic effect (CPE) usually after 4 to 6 days of incubation at 37° C. At the end of incubation period at 37° C., the resulting cytopathic effect (CPE) in control and test wells was assessed by visual and a Neutral Red Dye assay.\n(§2) Results of CPE versus concentration of C1 were plotted on a semi-log paper and the dose of C1 that caused a 50% inhibition of virus mediated CPE (EC50) was calculated."}, "Measles Chicago": {"system": "Measles Chicago", "type": "cell-based", "conditions": "CV-1 cells, continuous exposure", "procedure": "as §1, §2"}, "RSV A A2": {"system": "RSV A A2", "type": "cell-based, Respiratory Synsycitial virus", "conditions": "MA-104 cells, continuous exposure", "procedure": "as §1, §2"}, "PIV 14702": {"system": "PIV 14702", "type": "cell-based, Parainfluenza virus", "conditions": "MA-104 cells, continuous exposure", "procedure": "as §1, §2"}, "SARS (urbani)": {"system": "SARS (urbani)", "type": "cell-based, Severe Acute Respiratory Syndrome (SARS) virus"}, "Flu A (H3N2)": {"system": "Flu A (H3N2)", "assay": "Virucidal activity: virus pre-incubated with compound, applied to MDCK cells 1 h, removed, CPE after 6 days", "type": "cell-based, influenza A virus"}, "Flu B Shanghai/361/02": {"system": "Flu B Shanghai/361/02", "type": "cell-based, influenza B virus", "conditions": "MDCK cells, continuous exposure", "procedure": "as §1, §2"}, "[2]": {"system": "Influenza A/California/7/04 (H3N2)", "assay": "ETOH vs DMSO comparison: compound + virus 1 h at room temperature, then left on indicator cells 3 days, neutral red", "type": "cell-based, influenza A virus", "conditions": "exposed to c1 + virus for 3 days"}, "Flu B Shanghai virus": {"system": "Flu B Shanghai virus", "assay": "Virucidal activity: virus pre-incubated with compound 1 h, applied to MDCK cells 1 h, removed, CPE after 6 days", "type": "cell-based, influenza B virus", "procedure": "For each test, a stock solution of the lead Compound C1 was made by first dissolving it in a small amount (50-100 microliters) of absolute ethanol (ETOH) followed by addition of growth nutrient medium to a final volume of 1 ml to bring the stock concentration of 20 mg/ml. It was tested at a concentration of 100 μg/ml, with half-log dilutions down to 0.032 μg/ml.\nThe compound C1 and the virus being tested were incubated together at 8 different concentrations for 1 hour at 37° C. Then virus/compound mixture applied to established cultured MDCK (Madin-Darby canine kidney) cells for 1 hour at 37° C. After 1 hour, the Virus/compound were removed, and replaced with new virus/compound free medium, and the indicator cells were further incubated for 6 days. Virus that survived the one hour pre-incubation and one hour exposure to indicator cells caused cytopathic effect (CPE) development. Results were evaluated by microscopic inspection (visual) as well as a spectrophotometic Neutral Red Dye Assay. The values shown represent the concentration (μg/ml) of C1 that caused a 50% virucidal effect (EC50). […]\nThe EC50 values were calculated by extrapolation from a plot of concentration versus virucidal activity data on semi-log paper. This allowed us to quantify complete virus killing of a small amount of virus (about 50-100 cell culture infectious doses)."}, "[3]": {"system": "Influenza A/California/7/04 (H3N2)", "assay": "ETOH vs DMSO comparison: compound + virus 1 h at room temperature, on indicator cells 1 hour then removed, neutral red", "type": "cell-based, influenza A virus", "conditions": "exposed to c1 + virus for 1 hour"}, "[4]": {"system": "Flu A (H5N1) Vietnam/1203/2004 H", "type": "cell-based, influenza A virus", "conditions": "MDCK cells, continuous exposure"}, "Flu A (H5N1)": {"system": "Flu A (H5N1)", "type": "cell-based, influenza A virus", "conditions": "virus treated one hour"}, "[5]": {"system": "Influenza A/New Caledonia/20/99 (H1N1)", "assay": "ETOH vs DMSO comparison: compound + virus 1 h at room temperature, then left on indicator cells 3 days, neutral red", "type": "cell-based, influenza A virus", "conditions": "exposed to c1 + virus for 3 days"}}, "note": "Like-named read-outs stand apart in the source and are kept apart here.", "data": [{"compound": "CCCCN1C(=O)CC(=O)N(CCCC)C1=S", "note": "[Compound C1, 4,6(1H, 5H)-Pyrimidinedione, 1,3-dibutyldihydro-2-thioxo]", "values": [{"measurement": "Increase virucidal activity of C1 in DMSO", "setting": "[1]; DMSO versus ETOH", "result": 140, "unit": "%"}, {"measurement": "EC50 of C1 in DMSO", "setting": "[1]; dissolved in DMSO, neutral red", "result": 30.0, "unit": "µg/mL"}, {"measurement": "EC50 of C1 in ETOH", "setting": "[1]; dissolved in ETOH, neutral red", "result": 42.0, "unit": "µg/mL"}, {"measurement": "EC50", "setting": "Rhinovirus HGP; Neutral Red", "result": 30, "unit": "µg/mL"}, {"measurement": "EC50", "setting": "Rhinovirus HGP; Visual", "result": 30, "unit": "µg/mL"}, {"measurement": "EC50", "setting": "Measles Chicago; Neutral Red", "result": 40, "unit": "µg/mL"}, {"measurement": "EC50", "setting": "Measles Chicago; Visual", "result": 30, "unit": "µg/mL"}, {"measurement": "EC50", "setting": "RSV A A2; Neutral Red", "result": 30, "unit": "µg/mL"}, {"measurement": "EC50", "setting": "RSV A A2; Visual", "result": 30, "unit": "µg/mL"}, {"measurement": "EC50", "setting": "PIV 14702; Neutral Red", "result": 30, "unit": "µg/mL"}, {"measurement": "EC50", "setting": "PIV 14702; Visual", "result": 30, "unit": "µg/mL"}, {"measurement": "dose causing 50% inactivation of the virus", "setting": "SARS (urbani); Neutral Red dye assay", "result": 53, "unit": "µg/mL"}, {"measurement": "dose causing 50% inactivation of the virus", "setting": "SARS (urbani); visual method", "result": 12, "unit": "µg/mL"}, {"measurement": "inactivation of the virus by treatment", "setting": "Flu A (H3N2); FIG. 2", "result": "virtually complete inactivation"}, {"measurement": "dose that caused a 50% inactivation (EC50)", "setting": "Flu A (H3N2); visual method, virus treated for 4 hours (so in the source), MDCK indicator cells", "result": 5.5, "unit": "µg/mL"}, {"measurement": "EC50", "setting": "Flu B Shanghai/361/02; Neutral Red", "result": 3, "unit": "µg/mL"}, {"measurement": "EC50", "setting": "Flu B Shanghai/361/02; Visual", "result": 3, "unit": "µg/mL"}, {"measurement": "Increase virucidal activity of C1 in DMSO", "setting": "[2]; DMSO versus ETOH", "result": 0, "unit": "%"}, {"measurement": "EC50 of C1 in DMSO", "setting": "[2]; dissolved in DMSO, neutral red", "result": ">1.9", "unit": "µg/mL"}, {"measurement": "EC50 of C1 in ETOH", "setting": "[2]; dissolved in ETOH, neutral red", "result": ">1.8", "unit": "µg/mL"}, {"measurement": "dose causing 50% inactivation of the virus", "setting": "Flu B Shanghai virus; Neutral red dye assay", "result": 37, "unit": "µg/mL"}, {"measurement": "dose causing 50% inactivation of the virus", "setting": "Flu B Shanghai virus; visual method", "result": 42, "unit": "µg/mL"}, {"measurement": "Increase virucidal activity of C1 in DMSO", "setting": "[3]; DMSO versus ETOH", "result": 220, "unit": "%"}, {"measurement": "EC50 of C1 in DMSO", "setting": "[3]; dissolved in DMSO, neutral red", "result": 20.0, "unit": "µg/mL"}, {"measurement": "EC50 of C1 in ETOH", "setting": "[3]; dissolved in ETOH, neutral red", "result": 42.0, "unit": "µg/mL"}, {"measurement": "EC50", "setting": "[4]; Neutral Red", "result": 3, "unit": "µg/mL"}, {"measurement": "EC50", "setting": "[4]; Visual", "result": 3, "unit": "µg/mL"}, {"measurement": "dose that caused a 50% inactivation (EC50)", "setting": "Flu A (H5N1); Neutral red assay, after 6 days", "result": 37, "unit": "µg/mL"}, {"measurement": "dose that caused a 50% inactivation (EC50)", "setting": "Flu A (H5N1); visual method, % CPE after 6 days", "result": 6.0, "unit": "µg/mL"}, {"measurement": "Increase virucidal activity of C1 in DMSO", "setting": "[5]; DMSO versus ETOH", "result": 200, "unit": "%"}, {"measurement": "EC50 of C1 in DMSO", "setting": "[5]; dissolved in DMSO, neutral red", "result": ">2.6", "unit": "µg/mL"}, {"measurement": "EC50 of C1 in ETOH", "setting": "[5]; dissolved in ETOH, neutral red", "result": ">4.5", "unit": "µg/mL"}]}]}
